Assay results as given in ChEMBL document CHEMBL5727360, “BCL-2 inhibitors” (2019).

Each compound was assayed against Apoptosis regulator Bcl-2 (Homo sapiens, UniProt P10415) (assay: Bcl-2 Competition Binding (Fluorescence Polarization) Assay: The fluorescence-labeled 23 amino acid peptide BH3 was purchased from CalBiochem ([…], SEQ ID NO: 1). An unbound Fluorescein labeled BH3 peptide emits random light with respect to the plane of polarization plane of excited light, resulting in a lower polarization degree (mP) value. When the peptide is bound to Bcl-2, the complex tumble slower and the emitted light can have a higher level of polarization, resulting in a higher mP value. This binding assay was performed in 96-well plate and with each assay contained 15 and 30 nM of labeled peptide and purified Bcl-2 protein (purchased from R&D Systems, Inc). The assay buffer contained 20 mM Hepes (pH 7.0), 50 mM KCl, 5 mM MgCl2, 20 mM Na2MoO4, 0.1 mg/ml Bovine Gamma Globulin and 0.01% NP40. Compounds were diluted in DMSO and added to the final assay with concentration range from 20 uM to 2 nM. The polarization degree (mP) value was determined by BioTek Synergy II with background subtraction after 3 hours of incubation at room temperature. IC50 was calculated using Prism software with sigmoidal dose-response curve fitting. ABT-737 was used as reference compound. Such assays, carried out with a range of doses of test compounds, allow the determination of an approximate IC50 value.).
Apoptosis regulator Bcl-2, sequence (P10415 whole entry): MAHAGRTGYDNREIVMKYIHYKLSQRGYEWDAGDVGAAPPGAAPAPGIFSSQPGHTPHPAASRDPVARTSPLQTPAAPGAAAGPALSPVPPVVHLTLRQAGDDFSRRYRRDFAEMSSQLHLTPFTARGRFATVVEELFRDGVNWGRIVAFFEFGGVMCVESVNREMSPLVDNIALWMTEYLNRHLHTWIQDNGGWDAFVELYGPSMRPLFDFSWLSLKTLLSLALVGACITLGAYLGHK

IC50 | Compound
< 0.01 µM | CC1(C)CCC(CN2CCN(c3ccc(C(=O)NS(=O)(=O)c4ccc(NC5CCN(C6CCOCC6)CC5)c([N+](=O)[O-])c4)c(-n4ncc5nc6[nH]ccc6cc54)c3)CC2)=C(c2ccc(Cl)cc2)C1
< 0.01 µM | CN1CCC(F)(COc2ccc(S(=O)(=O)NC(=O)c3ccc(N4CCN(CC5=C(c6ccc(Cl)cc6)CC(C)(C)CC5)CC4)cc3-n3ncc4nc5[nH]ccc5cc43)cc2[N+](=O)[O-])CC1
< 0.01 µM | CC1(C)CCC(CN2CCN(c3ccc(C(=O)NS(=O)(=O)c4ccc(NCCCN5CCOCC5)c([N+](=O)[O-])c4)c(-n4ncc5nc6[nH]ccc6cc54)c3)CC2)=C(c2ccc(Cl)cc2)C1
